# Measured values: patent publication US20020009713A1, “Methods for identifying modulators of neuronal growth” (priority 2000, published 2002)
# Tests used:
# sympathetic neurons [1] = experiment: Western blot / biochemical analysis of MAP2, phosphorylated-CamKII and phosphorylated-ERKs; assay type: cell-based, rat; details: for MAP2 levels: FIG. 27, NGF, KCl and kinase inhibitors
# Experimental: (§1) Microtubules were isolated from cultured sympathetic neurons, and the relative amount of MAP2 present per microgram tubulin was determined using quantitative dot-blot analysis. […] Depolarization enhances MAP2 levels and CamKII phosphorylation in sympathetic neurons. We performed western blot analysis of sympathetic neurons treated with 10 ng/ml NGF, 50 mM KCl, or NGF+KCl. Lysates containing equal amounts of protein were separated by SDS-PAGE, transferred to nitrocellulose, and then probed for MAP2, phosphorylated-CamKII, phosphorylated-ERKs, or total ERK protein. KCl increases the amount of MAP2 present in sympathetic neurons, and enhances CamKII phosphorylation.
# sympathetic neurons [2] = experiment: Quantitative dot-blot of MAP2 association with microtubules and microtubule stability; assay type: cell-based, rat; details: for amount of MAP2 bound to microtubules: two days
# Experimental: FIG. 22 is a schematic illustration showing immuno-dot blot analysis of MAP2 association and tubulin dynamics in SCG neurons. […]
# as §1
# (§2) Inhibition of either CamKII or MEK is sufficient to inhibit activitydependent dendrite formation. Immunocytochemical analysis for MAP2 on sympathetic neurons cultured in the presence of NGF+KCl with or without 10 um KN62, 75 um PD98059, 100 nM H-89 or 10 uM forskolin. […] In this study, microtubule stability was determined in sympathetic neurons maintained in NGF or NGF+KCl, and treated with selective pharmacological inhibitors.
# sympathetic neurons [3] = experiment: Activity-dependent dendrite formation, MAP2 immunocytochemistry and image analysis; assay type: cell-based, rat; details: for activity-dependent dendrite formation (MAP2): NGF+KCl, 10 um KN62, 75 um PD98059
# Experimental: Dendritic growth can be measured as follows. Ninty-six-well plates are coated for […] with rat tail collagen (prepared in a dilution of 1% glacial acetic acid). After one hour, excess collagen is aspirated and allow to dry completely. SCG neurons are dissected, triturated and plated. Cells may also be plated onto 8-well chamber slides. Cells are fed after about three days and, after about five days, are switched to either 50 mM KCl or 10 ng/ml NGF+50 mM KCl for about three additional days. Neurons are washed briefly with PBS and then fixed for 10 minutes with 4% formaldehyde in PBS (freshly prepared). Excess fixative is removed by 3×5 min washes with PBS. Cells are stained for one hour at room temperature with the following antibodies with 3×5 min PBS washes after each incubation: primary antibody—mouse monoclonal IgG1 anti high molecular weight MAP2 (clone AP20, from Sigma), secondary antibody—donkey anti mouse CY3, minimum cross to mouse and rabbit (Jackson Immunochemicals). Cell are mounted and at least three fields of view are captured using an upright fluorescence microscope using 530 excitation/580 emission filters. For each individual neuron in a given field (minimum 250 neurons total), the distance of MAP2 positive staining from the perimeter of the cell body is measured. These measurements are performed and tabulated using NIH image. The tabulated data are then expressed as a population histogram, binning all the measured lengths into 2 μm bins. This analysis gives an overall measure of the extent of dendritic differentiation in the population.
# Neuronal depolarization causes dendrite formation in cultured sympathetic neurons, and NGF enhances this dendritogenesis. FIGS. 19A-19C, 20A, 20B show immunocytochemical analysis of sympathetic neurons cultured in the presence of NGF, switched to 10 ng/ml NGF, 50 mM KCl, or 10 ng/ml NGF+50 mM KCl for two days, and then stained for the dendrite-specific protein MAP2. FIGS. 20A and 20B are high magnification views of fields similar to those shown at lower-magnification in FIGS. 19A and 19C, respectively. The MAP2-immunoreactive processes show morphology characteristic of dendrites. The amount of dendritic formation could be readily quantified.
# as §2
# rat sympathetic neurons [4] = experiment: MTT survival assay of cultured sympathetic neurons; assay type: cell-based
# Experimental: Neurons were plated at low density (approximately one ganglion/well) in Nunclon™ 4-well culture dishes (Gibco BRL, Burlington, Ontario, Canada), coated with either rat tail collagen or poly-D-lysine and laminin (both from Collaborative Biomedical Products, Bedford, Mass.). Culture medium was UltraCulture (BioWhittaker, Walkersville, Md.), supplemented with 3% rat serum (Harlan Bioproducts, Madison, Wis.), 2 mM glutamine, 100 U/ml penicillin, 100 μg/ml streptomycin (all from BioWhittaker), and for the first two days, 7 μM cytosine arabinoside (Sigma-Aldrich Canada Ltd., Oakville, Ontario, Canada).
# (§3) NGF-dependent neurons were selected by culturing sympathetic neurons for five days in the presence of 50 ng/ml NGF. Neurons were washed three times for one hour each in neurotrophin-free media, and were then fed with media containing 10 ng/ml NGF alone, or various concentrations of NGF plus either 100 ng/ml BDNF, 10 μg/ml αBDNF, or a 1:100 dilution of antiserum containing the p75^NTR antibody, REX (Weskamp and Reichardt, Neuron 6: 649-663, 1991). Each condition was repeated in triplicate, and analysis of survival was performed 48 hours later by using nonradioactive cell proliferation (MTT) assays (Celltitre 96; Promega; Belliveau et al., J. Cell Biol. 136:375-388, 1997). Specifically, 50 μl of the MTT reagent was added to 500 μl media in each well, and incubated for two hours at 37° C. After aspiration of the MTT containing media, 100 μl of a 0.065N HCl/isopropanol mixture was added to each well to lyse the cells, and colorimetric analysis was performed using an ELISA reader. For rat sympathetic neurons, 10 ng/ml NGF represents 100% survival, therefore all other values were considered to be relative to 10 ng/ml NGF. For mouse neurons, 7.5 ng/ml NGF represents 100% survival, and was thus considered to be the 100% survival threshold for neuritogenesis experiments.
# ERK, Akt, CamKII = experiment: Check of inhibitor selectivity for ERK, Akt and CamKII pathways; assay type: cell-based
# [5] = tested on: mouse sympathetic neurons; experiment: MTT survival assay of mouse sympathetic neurons; assay type: cell-based
# Experimental: CD-1 mouse sympathetic neurons were cultured by a modification of the method used to prepare rat neurons. Mouse cultures were essentially prepared the same way, but were dissociated in UltraCulture medium rather than Hanks' balanced saline solution. 3% fetal bovine serum (Gibco) was used instead of rat serum, and 3.5 μM cytosine arabinoside was added to the culture medium on day one post-plating.
# as §3, with “Each condition was repeated in triplicate, and analysis of survival was performed 48 hours later by using nonradioactive cell proliferation (MTT) assays (Celltitre 96; Promega; Belliveau et al., J.” left out, “For mouse neurons, 7.5 ng/ml NGF represents 100% survival, and was thus considered to be the 100% survival threshold for neuritogenesis experiments.” left out
# [6] = tested on: murine sympathetic neurons; experiment: Neuritogenesis assay in wild type and p75NTR-/- murine sympathetic neurons; assay type: cell-based, mouse; details: 7.5 ng/ml NGF plus 100 ng/ml BDNF
# rat sympathetic neurons [7] = experiment: In vitro neuritogenesis assay (neuritic process density); assay type: cell-based; details: 100 ng/ml BDNF in 10 ng/ml NGF, two days, six experiments
# Experimental: Regulation of neuronal growth was analyzed by an in vitro neuritogenesis assay. Postnatal day one rat sympathetic neurons were cultured in 50 ng/ml NGF for two to three days in order to upregulate p75^NTR, whose increased expression in response to NGF occurs independently of neuronal survival. Following a one hour wash in neurotrophin-free medium, cultures were maintained for an additional two days in 10 ng/ml NGF plus or minus 100 ng/ml BDNF. Fields in sister cultures containing a similar number of neuronal cell bodies were then photographed, and neuritic process density was determined as described below. […]
# Quantitative analysis was performed by using common statistics applied to random sets of lines and determining the number of intersection points per unit area. […] Low density fields were photographed, and the number of visible intersections and bifurcations of cell processes per unit area was considered to be a quantitative measure of process density. Since the number of neurites is a direct function of the number of neurons, however, the number of intersections and bifurcations counted per unit area was normalized to the number of cell bodies in that same area of interest. […] Results are expressed as the mean density plus or minus the standard error of the mean.
# TrkB = experiment: BDNF neutralization: TrkB tyrosine phosphorylation in TrkB-expressing NIH-3T3 cells; assay type: cell-based; details: 50 ng/ml BDNF, five minutes
# Experimental: To test the capacity of anti-BDNF to neutralize BDNF, TrkB-expressing NIH-3T3 cells were cultured in Dulbecco's modified Eagle medium. Briefly, cells were washed twice and incubated for one hour at 37° C. in buffer, followed by a 30 minute wash at 37° C. in a phosphate-free buffer. Treatment consisted of incubating cells for five minutes with either 50 ng/ml BDNF (Promega) or with BDNF preabsorbed for four hours at 4° C. with increasing concentrations of the BDNF antibody (5-40 μg/ml). In addition, TrkB-3T3 cells were treated with medium only, or medium plus 40 μg/ml nonimmune chicken IgY. Following these treatments, cells were lysed, immunoprecipitated with anti-pan Trk (Hempstead et al., Neuron 9:883-896, 1992), and the immunoprecipitates analyzed for TrkB activation by Western blot analysis with phosphotyrosine antibody 4G10 (Upstate Biotechnology Inc., Lake Placid, N.Y.).
# [8] = 10 ng/ml NGF added to 50 mM KCl
molecule,measurement,setting,value
[Cl-].[K+] [KCl],CamKII phosphorylation,sympathetic neurons [1]; 50 mM KCl,enhances
same,amount of MAP2 present in sympathetic neurons,sympathetic neurons [1]; 50 mM KCl,increases
same,amount of MAP2 bound to microtubules,sympathetic neurons [2]; 50 mM KCl,greatly enhances
CN([C@@H](Cc1ccc(OS(=O)(=O)c2cccc3cnccc23)cc1)C(=O)N1CCN(c2ccccc2)CC1)S(=O)(=O)c1cccc2cnccc12 [KN-62],MAP2 levels,sympathetic neurons [1],reduce
same,activity-dependent dendrite formation (MAP2),sympathetic neurons [3],completely abolished
same,survival of sympathetic neurons (MTT),rat sympathetic neurons [4]; cultured in NGF or NGF+KCl,None of these compounds perturbs
same,survival of sympathetic neurons (MTT),rat sympathetic neurons [4]; cultured only in 50 mM KCl,dramatically reduces
same,KCl-induced increase in microtubule stability,sympathetic neurons [2]; neurons maintained in NGF or NGF+KCl,completely inhibit
same,ERK or Akt activation,"ERK, Akt, CamKII",do not affect
COc1cccc(-c2cc(=O)c3ccccc3o2)c1N [PD98059],MAP2 levels,sympathetic neurons [1],reduce
same,activity-dependent dendrite formation (MAP2),sympathetic neurons [3],completely abolished
same,CamKII activity,"ERK, Akt, CamKII",does not affect
O=S(=O)(NCCNC/C=C/c1ccc(Br)cc1)c1cccc2cnccc12 [H-89],survival of sympathetic neurons (MTT),rat sympathetic neurons [4]; cultured in NGF or NGF+KCl,None of these compounds perturbs
"NGF: nerve growth factor purified from mouse salivary glands (protein, UniProt P01139 122-241, looked up) Beta-nerve growth factor: SSTHPVFHMGEFSVCDSVSVWVGDKTTATDIKGKEVTVLAEVNINNSVFRQYFFETKCRASNPVESGCRGIDSKHWNSYCTTTHTFVKALTTDEKQAAWRFIRIDTACVCVLSRKATRRG",ERK phosphorylation,sympathetic neurons [1]; 10 ng/ml NGF compared with 50 mM KCl,more potent stimulator
same,KCl-dependent dendritic growth,sympathetic neurons [3]; [8],greatly enhances
same,dendritic growth (MAP2-positive dendrite length),sympathetic neurons [3]; 10 ng/ml NGF on its own,little ability to cause dendritic growth
same,amount of MAP2 bound to microtubules,sympathetic neurons [2]; [8],enhances this effect to some degree
same,mouse sympathetic neuron survival (MTT),"[5]; 5, 7.5 and 10 ng/ml NGF, three days",maximal
"BDNF: brain-derived neurotrophic factor; recombinant human BDNF (protein, UniProt P23560 19-247, looked up) Neurotrophic factor BDNF …: APMKEANIRGQGGLAYPGVRTHGTLESVNGPKAGSRGLTSLADTFEHVIEELLDEDQKVRPNEENNKDADLYTSRVMLSSQVPLEPPLLFLLEEYKNYLDAANMSMRVRRHSDPARRGELSVCDSISEWVTAADKKTAVDMSGGTVTVLEKVPVSKGQLKQYFYETKCNPMGYTKEGCRGIDKRHWNSQCRTTQSYVRALTMDSKKRIGWRFIRIDTSCVCTLTIKRGR",effect on growth,[6]; p75NTR-/- neurons,no effect
same,average decrease of neuronal growth,[6]; wild type mouse cultures,35%
same,sympathetic neuron survival (MTT),"rat sympathetic neurons [4]; 100 ng/ml BDNF in 10 ng/ml NGF, two days",no effect
same,average decrease of process network density,rat sympathetic neurons [7],40%
same,tyrosine phosphorylation of TrkB,TrkB,robust increase
same,mouse sympathetic neuron survival (MTT),[5]; 7.5 or 10 ng/ml NGF plus 100 ng/ml BDNF,did not affect
